Test results: ChEMBL document CHEMBL1149882, “Sesterterpenoids from the sponge Sarcotragus sp” (J Nat Prod, 2008)
Converted amounts (≈) assume the structure as drawn.

Assays:
Staphylococcus aureus [1] = experiment: Antimicrobial activity against methicillin-resistant Staphylococcus aureus ATCC 700787; assay type: functional
Escherichia coli = experiment: Antimicrobial activity against Escherichia coli ATCC 11775; assay type: functional
Isocitrate lyase = Isocitrate lyase (Candida albicans, UniProt Q9P8Q7); experiment: Inhibition of Candida albicans isocitrate lyase
Salmonella typhimurium = experiment: Antimicrobial activity against Salmonella Typhimurium ATCC 14028; assay type: functional, Salmonella enterica subsp. enterica serovar Typhimurium; conditions: Salmonella enterica
Staphylococcus aureus [2] = experiment: Antimicrobial activity against methicillin-resistant Staphylococcus aureus ATCC 43300; assay type: functional
Micrococcus luteus = experiment: Antimicrobial activity against Micrococcus luteus IFC12708; assay type: functional
K562 = experiment: Cytotoxicity against human K562 cells by MTT assay; assay type: functional; conditions: read-out: LC50 (the source's name)
Staphylococcus aureus [3] = experiment: Antimicrobial activity against methicillin-resistant Staphylococcus aureus ATCC 700788; assay type: functional
Proteus vulgaris = experiment: Antimicrobial activity against Proteus vulgaris ATCC 3851; assay type: functional
Bacillus subtilis = experiment: Antimicrobial activity against Bacillus subtilis ATCC 6633; assay type: functional
Staphylococcus aureus [4] = experiment: Antimicrobial activity against Staphylococcus aureus ATCC 65389; assay type: functional

Sequence of Isocitrate lyase (Q9P8Q7 whole entry): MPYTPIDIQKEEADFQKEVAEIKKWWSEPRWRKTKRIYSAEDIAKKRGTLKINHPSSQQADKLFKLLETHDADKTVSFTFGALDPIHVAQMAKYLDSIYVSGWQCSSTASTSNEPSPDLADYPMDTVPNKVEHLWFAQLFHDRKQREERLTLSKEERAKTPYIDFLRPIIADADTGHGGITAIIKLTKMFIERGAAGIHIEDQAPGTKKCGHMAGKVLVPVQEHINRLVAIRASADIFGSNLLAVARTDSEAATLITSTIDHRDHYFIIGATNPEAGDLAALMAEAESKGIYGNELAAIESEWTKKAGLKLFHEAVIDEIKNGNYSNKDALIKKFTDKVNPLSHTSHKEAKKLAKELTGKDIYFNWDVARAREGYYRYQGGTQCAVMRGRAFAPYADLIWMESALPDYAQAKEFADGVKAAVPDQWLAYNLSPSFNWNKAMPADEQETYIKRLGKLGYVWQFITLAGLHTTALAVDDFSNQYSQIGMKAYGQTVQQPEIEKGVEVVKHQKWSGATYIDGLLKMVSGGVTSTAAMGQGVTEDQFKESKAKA

Row | Compound | MIC (Staphylococcus aureus [1]) | MIC (Escherichia coli) | IC50 (Isocitrate lyase) | MIC (Salmonella typhimurium) | MIC (Staphylococcus aureus [2]) | MIC (Micrococcus luteus) | CC50 (K562) | MIC (Staphylococcus aureus [3]) | MIC (Proteus vulgaris) | MIC (Bacillus subtilis) | MIC (Staphylococcus aureus [4])
1 | COC(=O)C(C)(O)[C@](O)(C[C@H](C)CCC/C(C)=C/CC/C(C)=C/CCc1ccoc1)C(=O)OC (stereo not given in full) | > 100 µg/mL | > 100 µg/mL | > 418 µM | > 100 µg/mL | > 100 µg/mL | 100 µg/mL (≈ 209 µM) | 20 µg/mL (≈ 41.8 µM) | > 100 µg/mL | > 100 µg/mL | > 100 µg/mL | > 100 µg/mL
2 | COC(=O)C(C)(O)[C@](O)(C[C@H](C)CCC/C(C)=C/CC/C(C)=C/CCC1=CCN(CC(=O)O)C1=O)C(=O)OC (stereo not given in full) | > 100 µg/mL | > 100 µg/mL | > 363 µM | > 100 µg/mL | > 100 µg/mL | > 100 µg/mL | > 100 µg/mL | > 100 µg/mL | > 100 µg/mL | > 100 µg/mL | > 100 µg/mL
3 | CC1=C(O)/C(=C/[C@H](C)CCC/C(C)=C/CC/C(C)=C/CCc2ccoc2)OC1=O | 50 µg/mL (≈ 125 µM) | > 100 µg/mL | 81.5 µM | 25 µg/mL (≈ 62.7 µM) | 50 µg/mL (≈ 125 µM) | 12.5 µg/mL (≈ 31.4 µM) | 39 µg/mL (≈ 97.9 µM) | 50 µg/mL (≈ 125 µM) | 12.5 µg/mL (≈ 31.4 µM) | 6.25 µg/mL (≈ 15.7 µM) | 12.5 µg/mL (≈ 31.4 µM)
4 | CC1=C(O)/C(=C/[C@H](C)CC/C=C(/C)CC/C=C(/C)CCCc2ccoc2)OC1=O | 6.25 µg/mL (≈ 15.7 µM) | > 100 µg/mL | 81.5 µM | 6.25 µg/mL (≈ 15.7 µM) | 6.25 µg/mL (≈ 15.7 µM) | 3.12 µg/mL (≈ 7.84 µM) | 62 µg/mL (≈ 156 µM) | 12.5 µg/mL (≈ 31.4 µM) | 6.25 µg/mL (≈ 15.7 µM) | 3.12 µg/mL (≈ 7.84 µM) | 3.12 µg/mL (≈ 7.84 µM)
5 | CC1=C(O)/C(=C/[C@H](C)CCC/C(C)=C/CC/C(C)=C/CCC2=CC(O)OC2=O)OC1=O (stereo not given in full) | > 100 µg/mL | > 100 µg/mL | 29 µM | > 100 µg/mL | > 100 µg/mL | 50 µg/mL (≈ 116 µM) | > 100 µg/mL | > 100 µg/mL | > 100 µg/mL | > 100 µg/mL | > 100 µg/mL
6 | COC(=O)C(C)(O)[C@@](O)(C[C@H](C)CC/C=C(/C)CC/C=C(/C)CCCc1ccoc1)C(=O)OC (stereo not given in full) | > 100 µg/mL | > 100 µg/mL | 253 µM | > 100 µg/mL | > 100 µg/mL | 50 µg/mL (≈ 104 µM) | 46 µg/mL (≈ 96.1 µM) | > 100 µg/mL | > 100 µg/mL | > 100 µg/mL | > 100 µg/mL
7 | COC(=O)C(C)(O)[C@](O)(C[C@H](C)CC/C=C(/C)CC/C=C(/C)CCCc1ccoc1)C(=O)OC (stereo not given in full) | > 100 µg/mL | > 100 µg/mL | 188 µM | > 100 µg/mL | > 100 µg/mL | > 100 µg/mL | 34 µg/mL (≈ 71 µM) | > 100 µg/mL | > 100 µg/mL | > 100 µg/mL | > 100 µg/mL
8 | COC(=O)C(C)(O)[C@](O)(C[C@H](C)CC/C=C(/C)CC/C=C(/C)CCCC1=CCN(CC(=O)O)C1=O)C(=O)OC (stereo not given in full) | > 100 µg/mL | > 100 µg/mL | 358 µM | > 100 µg/mL | > 100 µg/mL | > 100 µg/mL | > 100 µg/mL | > 100 µg/mL | > 100 µg/mL | > 100 µg/mL | > 100 µg/mL
9 | CC1=C(O)/C(=C/[C@H](C)CCC/C(C)=C/CCC(C)(O)CCCc2ccoc2)OC1=O (stereo not given in full) | > 100 µg/mL | > 100 µg/mL | 55.7 µM | > 100 µg/mL | 100 µg/mL (≈ 240 µM) | 100 µg/mL (≈ 240 µM) | > 100 µg/mL | > 100 µg/mL | > 100 µg/mL | > 100 µg/mL | > 100 µg/mL
10 | COC1C=C(CC/C=C(\C)CC/C=C(\C)CCC[C@@H](C)/C=C2\OC(=O)C(C)=C2O)C(OC)O1 (stereo not given in full) | 50 µg/mL (≈ 109 µM) | > 100 µg/mL | 91.4 µM | > 100 µg/mL | 50 µg/mL (≈ 109 µM) | 50 µg/mL (≈ 109 µM) | 80 µg/mL (≈ 174 µM) | 100 µg/mL (≈ 217 µM) | 100 µg/mL (≈ 217 µM) | 50 µg/mL (≈ 109 µM) | 100 µg/mL (≈ 217 µM)
11 | C/C(=C\CCc1ccoc1)CC/C=C(\C)CCC[C@@H](C)CC(=O)O | 100 µg/mL (≈ 301 µM) | > 100 µg/mL | > 602 µM | 50 µg/mL (≈ 150 µM) | 25 µg/mL (≈ 75.2 µM) | 12.5 µg/mL (≈ 37.6 µM) | > 100 µg/mL | > 100 µg/mL | 50 µg/mL (≈ 150 µM) | > 100 µg/mL | 100 µg/mL (≈ 301 µM)
12 | C/C(=C/CC[C@@H](C)CC(=O)O)CC/C=C(/C)CCCc1ccoc1 | 25 µg/mL (≈ 75.2 µM) | > 100 µg/mL | 241 µM | 12.5 µg/mL (≈ 37.6 µM) | 12.5 µg/mL (≈ 37.6 µM) | 6.25 µg/mL (≈ 18.8 µM) | > 100 µg/mL | 25 µg/mL (≈ 75.2 µM) | 25 µg/mL (≈ 75.2 µM) | 25 µg/mL (≈ 75.2 µM) | 25 µg/mL (≈ 75.2 µM)
13 | C/C(=C/CC[C@@H](C)CC(=O)O)CC/C=C(/C)CCCC1=CC(=O)OC1=O | > 100 µg/mL | > 100 µg/mL | 54.9 µM | > 100 µg/mL | > 100 µg/mL | 100 µg/mL (≈ 276 µM) | > 100 µg/mL | > 100 µg/mL | > 100 µg/mL | > 100 µg/mL | > 100 µg/mL
14 | CC1=C(O)/C(=C/[C@H](C)CC/C=C(/C)CC/C=C(/C)CCCC2=CC(=O)OC2O)OC1=O (stereo not given in full) | 100 µg/mL (≈ 232 µM) | > 100 µg/mL | 91.5 µM | > 100 µg/mL | 100 µg/mL (≈ 232 µM) | 50 µg/mL (≈ 116 µM) | > 100 µg/mL | > 100 µg/mL | > 100 µg/mL | > 100 µg/mL | > 100 µg/mL
15 | COC1C=C(CCC/C(C)=C\CC/C(C)=C\CC[C@@H](C)/C=C2\OC(=O)C(C)=C2O)C(OC)O1 (stereo not given in full) | 100 µg/mL (≈ 217 µM) | > 100 µg/mL | 95.1 µM | > 100 µg/mL | 100 µg/mL (≈ 217 µM) | 50 µg/mL (≈ 109 µM) | 83 µg/mL (≈ 180 µM) | 100 µg/mL (≈ 217 µM) | > 100 µg/mL | 50 µg/mL (≈ 109 µM) | 100 µg/mL (≈ 217 µM)
16 | CC1=C(O)/C(=C/[C@H](C)CC/C=C(/C)CC/C=C(/C)CCCC2=CC(O)OC2=O)OC1=O (stereo not given in full) | > 100 µg/mL | > 100 µg/mL | – | > 100 µg/mL | > 100 µg/mL | 100 µg/mL (≈ 232 µM) | > 100 µg/mL | > 100 µg/mL | > 100 µg/mL | > 100 µg/mL | > 100 µg/mL
17 | CC1(C)S[C@@H]2[C@H](NC(=O)[C@H](N)c3ccccc3)C(=O)N2[C@H]1C(=O)O [AMPICILLIN] | – | 1.56 µg/mL (≈ 4.47 µM) | – | 1.56 µg/mL (≈ 4.47 µM) | – | 12.5 µg/mL (≈ 35.8 µM) | – | – | 3.12 µg/mL (≈ 8.94 µM) | 3.12 µg/mL (≈ 8.94 µM) | 1.56 µg/mL (≈ 4.47 µM)
18 | C=C(CC(=O)O)C(=O)O [ITACONATE] | – | – | 37.7 µM | – | – | – | – | – | – | – | –
19 | Cc1onc(-c2ccccc2)c1C(=O)N[C@@H]1C(=O)N2[C@@H]1SC(C)(C)[C@@H]2C(=O)O [OXACILLIN] | 50 µg/mL (≈ 125 µM) | – | – | – | 25 µg/mL (≈ 62.3 µM) | – | – | 25 µg/mL (≈ 62.3 µM) | – | – | –
